Reference: EPA's CvTdb concentration-time database

Columns and labels:
Rat [1] = assay: concentration in brain after dosing; conditions: 6 h; dosed: Perfluorooctane Sulfonate; 20 mg/kg; oral; Male; Harlan Sprague Dawley
Rat [2] = assay: concentration in liver after dosing; conditions: 24 h; dosed: Perfluorooctane Sulfonate; 20 mg/kg; oral; Male; Harlan Sprague Dawley
Rat [3] = assay: concentration in kidney after dosing; conditions: 864 h; dosed: Perfluorooctane Sulfonate; 20 mg/kg; oral; Female; F344
Rat [4] = assay: concentration in liver after dosing; conditions: 6 h; dosed: Perfluorooctane Sulfonate; 20 mg/kg; oral; Female; F344
Rat [5] = assay: concentration in liver after dosing; conditions: 6 h; dosed: Perfluorooctane Sulfonate; 2 mg/kg; oral; Female; Harlan Sprague Dawley
Rat [6] = assay: concentration in plasma after dosing; conditions: 6 h; dosed: Perfluorooctane Sulfonate; 2 mg/kg; oral; Female; Harlan Sprague Dawley
Rat [7] = assay: concentration in kidney after dosing; conditions: 6 h; dosed: Perfluorooctane Sulfonate; 20 mg/kg; oral; Male; Harlan Sprague Dawley
Rat [8] = assay: concentration in liver after dosing; conditions: 1848 h; dosed: Perfluorooctane Sulfonate; 20 mg/kg; oral; Male; Harlan Sprague Dawley
Rat [9] = assay: concentration in kidney after dosing; conditions: 3360 h; dosed: Perfluorooctane Sulfonate; 20 mg/kg; oral; Male; Harlan Sprague Dawley
Rat [10] = assay: concentration in kidney after dosing; conditions: 24 h; dosed: Perfluorooctane Sulfonate; 2 mg/kg; oral; Female; Harlan Sprague Dawley
Rat [11] = assay: concentration in kidney after dosing; conditions: 864 h; dosed: Perfluorooctane Sulfonate; 20 mg/kg; oral; Male; Harlan Sprague Dawley
Rat [12] = assay: concentration in liver after dosing; conditions: 864 h; dosed: Perfluorooctane Sulfonate; 2 mg/kg; oral; Female; Harlan Sprague Dawley
Rat [13] = assay: concentration in plasma after dosing; conditions: 5 min; dosed: Gemfibrozil; 4.29 mg/kg; oral; Male; Sprague-Dawley
Rat [14] = assay: concentration in plasma after dosing; conditions: 2 h; dosed: Gemfibrozil; 50 mg/kg; oral; Male; Sprague-Dawley
Rat [15] = assay: concentration in plasma after dosing; conditions: 0.5 h; dosed: Perfluorohexanoic Acid; 80 mg/kg; oral; Male; Harlan Sprague Dawley
Rat [16] = assay: concentration in plasma after dosing; conditions: dosed: Perfluorohexanoic Acid, 40 mg/kg, oral, Male, Harlan Sprague Dawley
Rat [17] = assay: concentration in kidney after dosing; conditions: 0.5 h; dosed: Perfluorohexanoic Acid; 80 mg/kg; oral; Female; Harlan Sprague Dawley
Rat [18] = assay: concentration in kidney after dosing; conditions: 6 h; dosed: Perfluorohexanoic Acid; 80 mg/kg; oral; Female; Harlan Sprague Dawley
Rat [19] = assay: concentration in plasma after dosing; conditions: dosed: Perfluorohexanoic Acid, 80 mg/kg, oral, Male, Harlan Sprague Dawley
Rat [20] = assay: concentration in plasma after dosing; conditions: 0.25 h; dosed: Perfluorohexanoic Acid; 40 mg/kg; iv; Male; F344
Rat [21] = assay: concentration in liver after dosing; conditions: 1 h; dosed: Perfluorohexanoic Acid; 80 mg/kg; oral; Female; Harlan Sprague Dawley
Rat [22] = assay: concentration in plasma after dosing; conditions: 192 h; dosed: Fluorotelomer alcohol 8+2; 24 mg/kg; oral; Male; Harlan Sprague Dawley
Rat [23] = assay: concentration in plasma after dosing; conditions: dosed: Fluorotelomer alcohol 8+2, 12 mg/kg, oral, Male, Harlan Sprague Dawley
Rat [24] = assay: concentration in plasma after dosing; conditions: dosed: 678-39-7, 40 mg/kg, iv, Female, Harlan Sprague-Dawley
Rat [25] = assay: concentration in kidney after dosing; conditions: 12 h; dosed: Fluorotelomer alcohol 8+2; 80 mg/kg; oral; Female; Harlan Sprague Dawley
Rat [26] = assay: concentration in plasma after dosing; conditions: dosed: Fluorotelomer alcohol 8+2, 12 mg/kg, oral, Male, Harlan Sprague Dawley; remark: listed apart in the source
Rat [27] = assay: concentration in plasma after dosing; conditions: dosed: 678-39-7, 12 mg/kg, iv, Male, F344
Rat [28] = assay: concentration in brain after dosing; conditions: 6 h; dosed: Fluorotelomer alcohol 8+2; 80 mg/kg; oral; Female; Harlan Sprague Dawley
Rat [29] = assay: concentration in plasma after dosing; conditions: dosed: 678-39-7, 12 mg/kg, iv, Male, F344; remark: listed apart in the source
Rat [30] = assay: concentration in kidney after dosing; conditions: 1 h; dosed: Fluorotelomer alcohol 8+2; 80 mg/kg; oral; Female; Harlan Sprague Dawley
Rat [31] = assay: concentration in brain after dosing; conditions: 1.5 h; dosed: 2-Methyltetrahydrofuran; 40 mg/kg; iv; Male; Harlan Sprague Dawley
Rat [32] = assay: concentration in plasma after dosing; conditions: 0.2 h; dosed: 2-Methyltetrahydrofuran; 40 mg/kg; iv; Male; Harlan Sprague Dawley
Rat [33] = assay: concentration in plasma after dosing; conditions: 1.5 h; dosed: 2-Methyltetrahydrofuran; 40 mg/kg; iv; Male; Harlan Sprague Dawley
Rat [34] = assay: concentration in plasma after dosing; conditions: 1.5 h; dosed: 2-Methyltetrahydrofuran; 40 mg/kg; iv; Male; Harlan Sprague Dawley; remark: listed apart in the source
Rat [35] = assay: concentration in brain after dosing; conditions: 7 min; dosed: 2-Methyltetrahydrofuran; 40 mg/kg; iv; Male; Harlan Sprague Dawley
Rat [36] = assay: concentration in plasma after dosing; conditions: 2 min; dosed: 2-Methyltetrahydrofuran; 40 mg/kg; iv; Male; Harlan Sprague Dawley
Rat [37] = assay: concentration in plasma after dosing; conditions: 6 h; dosed: 2-Methyltetrahydrofuran; 40 mg/kg; iv; Male; Harlan Sprague Dawley
Rat [38] = assay: concentration in plasma after dosing; conditions: 4 h; dosed: 2-Methyltetrahydrofuran; 40 mg/kg; iv; Female; Harlan Sprague Dawley
Rat [39] = assay: concentration in plasma after dosing; conditions: 1.5 h; dosed: 2-Methyltetrahydrofuran; 40 mg/kg; iv; Male; Harlan Sprague Dawley; remark: listed apart in the source

O=S(=O)([O-])C(F)(F)C(F)(F)C(F)(F)C(F)(F)C(F)(F)C(F)(F)C(F)(F)C(F)(F)F [Perfluorooctane Sulfonate]
Conditions	concentration in brain [ng/g]	concentration in kidney [ng/g]	concentration in liver [ng/g]	concentration in plasma [µg/mL]
Rat [1]	4810	–	–	–
Rat [2]	–	–	157000	–
Rat [3]	–	35600	–	–
Rat [4]	–	–	139000	–
Rat [5]	–	–	27200	–
Rat [6]	–	–	–	4.92
Rat [7]	–	72300	–	–
Rat [8]	–	–	51700	–
Rat [9]	–	13900	–	–
Rat [10]	–	14600	–	–
Rat [11]	–	19300	–	–
Rat [12]	–	–	9930	–

Cc1ccc(C)c(OCCCC(C)(C)C(=O)O)c1 [Gemfibrozil]
Conditions	concentration in plasma [µg/mL]
Rat [13]	0.893
Rat [14]	7.21

O=C(O)C(F)(F)C(F)(F)C(F)(F)C(F)(F)C(F)(F)F [Perfluorohexanoic Acid]
Conditions	concentration in kidney [ng/g]	concentration in liver [ng/g]	concentration in plasma [µg/mL]
Rat [15]	–	–	105
Rat [17]	46000	–	–
Rat [18]	2180	–	–
Rat [20]	–	–	6.48
Rat [21]	–	39700	–

concentration in plasma [µg/mL]
Conditions	0.25 h	3 h	5 min	24 h
Rat [16]	–	48.7	28.8	–
Rat [19]	91.2	–	–	0.239

O=C(O)CCC(F)(F)C(F)(F)C(F)(F)C(F)(F)C(F)(F)C(F)(F)C(F)(F)F [Fluorotelomer acid 7+3]
Conditions	concentration in brain [ng/g]	concentration in kidney [ng/g]	concentration in plasma [µg/mL]
Rat [22]	–	–	0.0408
Rat [25]	–	2750	–
Rat [28]	1470	–	–
Rat [30]	–	762	–

Conditions	concentration in plasma [µg/mL]
Rat [23], 48 h	0.245
Rat [23], 192 h	0.0255
Rat [24], 1 h	1.68
Rat [24], 24 h	0.315
Rat [26], 0.75 h	0.274
Rat [26], 12 h	0.11
Rat [27], 1 h	0.601
Rat [27], 6 h	0.432
Rat [29], 0.25 h	0.037
Rat [29], 24 h	0.183

CC1CCCO1 (stereo unspecified) [2-Methyltetrahydrofuran]
Conditions	concentration in brain [µg/mL]	concentration in plasma [µg/mL]
Rat [31]	6.25	–
Rat [32]	–	37
Rat [33]	–	11.4
Rat [34]	–	12
Rat [35]	34	–
Rat [36]	–	59.4
Rat [37]	–	0.0297
Rat [38]	–	0.245
Rat [39]	–	19.3
